In paper PMC6290777, “Inhalation of the prodrug PI3K inhibitor CL27c improves lung function in asthma and fibrosis” (Nature Communications, 2018):

Test system: OVA-induced chronic allergic asthma
Experiment: OVA-induced chronic allergic asthma model
Type: in vivo, BALB/c mice
Method: BALF was performed to obtain leukocytes from alveolar space. The trachea was exposed and a 1.7-mm-outside-diameter polyethylene catheter was inserted. BAL was performed by washing the lungs three-times with three different 500 µl aliquots of PBS. BALF samples were centrifuged at 600 × g for 10 min at 4 °C on a histology glass slide and stained with Diff Quick (MICROPTIC, #DQ-ST). The number of leukocytes and differential counts of different population were obtained evaluating the percentage leukocyte populations over the total cell number.
Mice were anesthetized with a subcutaneous injection of ketamine and xylazine (130 mg/Kg ketamine and 8.5 mg/Kg xylazine) to maintain spontaneous breathing under anesthesia. Mice were tracheostomized, placed in a body plethysmograph and connected to a computer-controlled ventilator (Forced Pulmonary Maneuver System®, Buxco Research Systems©, Wilmington, North Carolina USA). First, an average breathing frequency of 160 breaths/min was imposed to the anesthetized animal by a pressure-controlled ventilation until a regular breathing pattern and complete expiration at each breathing cycle was obtained. Under mechanical respiration, respiratory flow and airway pressure were measured to compute dynamic compliance (Cdyn) and lung resistance (RL). To measure the TLC, pressure–volume maneuvers were performed, where lungs were inflated to a standard pressure of +30 cm H2O and then let slowly exhale until a negative pressure of −30 cm H2O was reached. To measure the FEV Fast-Flow Volume maneuvers was performed. In this maneuver, lungs were first inflated to +30 cm H2O (TLC) and, immediately, a negative pressure (−30 cm H2O) was applied in order to enforce expiration. To evaluate AHR, the same mice used in previous maneuvers (basal condition) received Metacholine, 1 mg/Kg (Acetyl-β-methylcholine chloride, A-2251, Sigma-Aldrich St.Louis, MO,USA) i.v., and 20 sec after, a new set of maneuvers were conducted to assess RL changes. Suboptimal maneuvers were rejected and for each test in every single mouse at least three acceptable maneuvers were conducted to obtain a reliable mean for all numeric parameters.
On day 1, BALB/c mice received systemic immunization by subcutaneous injection of 10 µg of chicken egg ovalbumin (OVA grade V, >98% pure; Sigma, St Louis, MO) diluted in 2 mg/mL Al(OH)3 followed by a booster injection at the day 14 (described in fig. 3). Nasal challenges were performed starting at the day 28, by inhalational exposure to aerosolised ovalbumin (1% ovalbumin in saline 0,9%) for 20 min per day, in alternated days during 16 days (day 28, 30, 32, 34, 36, 38, 40, 42 and 44). At the same time, mice received daily treatment from day 28 to 44 with CL27c (2 mg/ml dissolved in 0.5 % tylaxopol/saline solution, aerosolized for 30′) or vehicle (0.5% tyloxapol/saline solution, aerosolized for 30′), or dexamethasone (5 mg/kg i.p. injection). Untreated control groups included mice challenged with PBS alone. On day 45, mice were sacrificed, and samples were collected for further analysis.
IL-5, IL-13, eotaxin, TGF-β, KC, IL-17A, and MCP-1 levels in the BALF and anti-OVA IgE levels in serum were measured by ELISA technique using commercial DuoSet kits R&D Systems according to the instructions of the manufacturer. Results were expressed in levels of cytokines per ml of […] (pg/ml) or arbitrary units (A.U.).
The left lung was removed and fixed in 4% neutral phosphate-buffered formalin (pH 7.4)[10]. The tissues were dehydrated gradually in ethanol, embedded in paraffin, cut into 4 µm sections, stained with H&E, Gomori’s trichrome and periodic acid schiff (PAS), and examined under light microscopy by a pathologist in a double blinded manner. Images of lung sections were captured with a digital camera (Optronics DEI-470) connected to a microscope (Olympus IX70) with a magnification of ×40 or ×100. […]

[1] = CL27c 2 mg/ml aerosol or dexamethasone 5 mg/kg
[2] = aerosolized CL27c 2 mg/ml daily

## COC(=O)c1cccc(Cn2cc(-c3cccc4c(=O)cc(N5CCOCC5)[nH]c34)nn2)c1 [CL27c]
[1]
  accumulation of inflammatory cells in peribronchial and perivascular spaces: significantly decreased
  lung function: lung resistance (RL) and dynamic compliance (Cdyn): normalize lung function
  peribronchial fibrosis (fibrotic airway remodeling): significantly reduced
Aerosolized CL27c 2 mg/ml
  methacholine-evoked airway hyperresponsiveness: not able to modify methacholine-evoked airway hyperresponsiveness
[2]
  metaplasia of goblet cells and mucus production (PAS): prevented OVA-induced metaplasia of goblet cells and mucus production
  reduction of tissue levels of eosinophil peroxidase (EPO): 55%
  reduction of tissue levels of myeloperoxidase (MPO): 50%
Repeated administration
  Th2 mediators IL-5, IL-13, and Eotaxin: lowering of Th2 mediators
